From patent US4996212A, “Antiinflammatory and anti-hyperproliferative compounds” (Schering Corporation, priority 1989, dated 1991)

How the values were obtained:
[1] = system: Male Lewis inbred albino rats; experiment: Reversed Passive Arthus Reaction (RPAR), paw volume; type: in vivo; conditions: po, rat paw RPAR
Procedure: Reversed Passive Arthus Reaction (RPAR) Animals, Materials and Methods
Male Lewis inbred albino rats weighing 180-220 grams obtained from Charles River Breeding Laboratories are used in these experiments. The rats are housed 3 animals/cage and food and water are allowed ad libitum.
The animals are numbered 1-3 in each cage and color marked for identification purposes.
All reagents and drugs are prepared just prior to the study. Crystallized and lyophilized bovine serum albumin (BSA), obtained from Sigma Chemical Company, is solubilized without shaking in cold sterile pyrogen free saline (10 mg/ml). Lyophilized anti-bovine serum albumin (IgG Fraction), obtained from Cappel Laboratories, is suspended in sterile distilled water and diluted with cold pyrogen free saline (PFS) just prior to use. The final concentration of anti-bovine serum albumin is 0.5 mg/ml of PFS. Both BSA and anti-BSA solutions are iced during use. Drugs are suspended or solubilized in an aqueous solution of methyl cellulose (MC) with a homogenizer just prior to administration.
Groups of animals (6/group) are dosed with drug in MC by gavage one hour prior to sensitization with BSA. […] The volume of mercury displaced is converted to weight and recorded. […] Paw volumes are also recorded with a plethysmograph during the development of the inflammation at 2 and 4 hours post-challenge.

pleural cavity of rats = experiment: reverse passive Arthus reaction in the pleural cavity of rats; type: in vivo; conditions: po, rat pleural cavity RPAR
From the text: Another procedure for testing for acute antiinflammatory activity measures the reverse passive Arthus reaction in the pleural cavity of rats as described in Myers et al., Inflammation, Vol. 9, No. 1, 1985, pp. 91-98.

5-lipoxygenase = biological target: T1, 5-lipoxygenase (Rattus norvegicus, UniProt P12527); experiment: 5-lipoxygenase activity / arachidonic acid metabolism in rat neutrophils; type: cell-based; conditions: compound concentration 5×^10-5 Molar, [14C] arachidonic acid
T1 construct: at 3-12×10^7 intact neutrophils per ml; endogenous in cells; host or cells: neutrophils from the pleural exudate of male Wistar-Lewis rats (reversed passive Arthus reaction)
T1 sequence (P12527 1-673): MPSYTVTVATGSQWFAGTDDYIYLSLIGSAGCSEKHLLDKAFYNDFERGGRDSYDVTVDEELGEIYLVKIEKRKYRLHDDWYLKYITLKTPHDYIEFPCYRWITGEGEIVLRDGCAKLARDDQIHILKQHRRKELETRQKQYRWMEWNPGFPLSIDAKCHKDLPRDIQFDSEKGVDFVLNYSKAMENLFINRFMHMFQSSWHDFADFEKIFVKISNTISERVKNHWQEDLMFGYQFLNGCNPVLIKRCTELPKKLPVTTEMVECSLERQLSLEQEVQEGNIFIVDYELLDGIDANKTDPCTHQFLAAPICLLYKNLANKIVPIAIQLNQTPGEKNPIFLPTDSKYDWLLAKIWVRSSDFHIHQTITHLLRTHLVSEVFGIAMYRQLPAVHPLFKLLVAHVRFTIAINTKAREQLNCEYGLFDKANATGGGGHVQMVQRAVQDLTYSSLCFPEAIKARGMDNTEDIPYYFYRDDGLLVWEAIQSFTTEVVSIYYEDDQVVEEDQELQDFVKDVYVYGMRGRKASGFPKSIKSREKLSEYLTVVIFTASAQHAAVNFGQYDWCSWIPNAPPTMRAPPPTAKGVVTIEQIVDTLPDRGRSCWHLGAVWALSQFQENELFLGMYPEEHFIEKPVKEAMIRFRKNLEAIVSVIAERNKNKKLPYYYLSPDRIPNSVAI
Procedure: The effect of the compounds of the invention on 5-lipoxygenase activity is determined using rat neutrophils. Male Wistar-Lewis rats are injected intravenously with 5 mg BSA in 0.2 ml pyrogen free saline followed by an intrapleural injection of 500 ug of the IgG fraction of rabbit anti-BSA (Cappel Labs., Lot 17782) in 0.2 ml pyrogen free saline. Injections are made under light ether anesthesia. Four hours later, the pleural cavity exudate consisting of 85 to 95% neutrophils is removed. Neutrophils are isolated from the pleural exudates by centrifugation of 4° C. for 10 min at 200×g. The cell pellet is resuspended in 17 mM Tris HCl buffer, pH 7.2, containing 0.75% NH4 Cl to lyse contaminating erythrocytes followed by centrifugation at 4° C. for 5 min at 200×g. The pelleted neutrophils are rewashed in 50 mM Tris HCl, pH 7.4, containing 100 mM NaCl, followed by the same centrifugation. The cell pellet is resuspended in 50 mM Tris HCl, pH 7.4, containing 100 mM NaCl and 1 mM CaCl2, at 3-12×10^7 intact neutrophils per ml.
Solutions of compounds in methanol are dried, then resuspended in the cell suspension for 4 min. Arachidonic acid metabolism is determined by incubating 0.1 ml of this suspension with 40 uM [×^14 C] arachidonic acid (AA) (Amersham, 59 Ci/mole), in the presence of 0.1% BRIJ 56 and 10 uM A23187. Arachidonic acid metabolism as well as the various drug and reagent abbreviations are described in detail in Arch. Dermatol, Vol. 119, pages 541 to 547 (July 1983), the teachings of which are incorporated herein by reference. Assays run in triplicate are initiated by adding cells with inhibitor to a film of the BRIJ 56, arachidonic acid and A23187 at 37° C. After one minute, reactions are terminated by the addition of 2.4 ml of a chloroform:methanol (1:1 v/v) mixture and 0.9 ml of 0.1% formic acid. […] Products, leukotriene B4 (LTB4), 12-hydroxy heptadecatrienoic acid (HHT) and 5-hydroxy icosatetraenoic acid (5-HETE), are located by autoradiography and appropriate regions of the thin layer plates are scraped and counted in a liquid scintillation counter. […]

Structure (SMILES): O=c1c2c(c3cccnc3n1-c1ccccc1)NCC2 [1,2,3,5-tetrahydro-5-phenyl-4H-pyrrolo[3,2-c][I, 8]napthyridin-4-one]
- ED50 [1]: ~25 mg/kg
- ED50 (pleural cavity of rats): < 25 mg/kg

Structure (SMILES): O=c1c2c(c3cccnc3n1-c1ccccc1)N(c1ccccc1)CC2 [1,2,3,5-tetrahydro-1,5-diphenyl-4H-pyrrolo[3,2-c][1,8]napthyridin-4-one]
- inhibition of HETE production (5-lipoxygenase): ~60%
- inhibition of HHT production (5-lipoxygenase): about 40%
- inhibition of LTB4 production (5-lipoxygenase): ~60%

Structure (SMILES): CCOC(=O)N1CCc2c1c1cccnc1n(-c1ccccc1)c2=O [2,3,4,5-tetrahydro-4-oxo-5-phenyl-1H-pyrrolo[3,2-c][1,8]napthyridine-1-carboxylic acid, ethyl ester]
- ED50 (pleural cavity of rats): ~25 mg/kg
